{"source": "PubChem BioAssay (NCI)", "assay_in_all_cases": "NCI tumour cell line growth inhibition, 48 h", "key": {"786-0 renal": {"test_system": "786-0 renal"}, "NCI-H226 lung": {"test_system": "NCI-H226 lung"}, "SK-OV-3 ovarian": {"test_system": "SK-OV-3 ovarian"}, "HT29 colon": {"test_system": "HT29 colon"}, "SW-620 colon": {"test_system": "SW-620 colon"}, "OVCAR-3 ovarian": {"test_system": "OVCAR-3 ovarian"}, "EKVX NSCLC": {"test_system": "EKVX NSCLC"}, "U251 CNS": {"test_system": "U251 CNS"}, "SK-MEL-28 melanoma": {"test_system": "SK-MEL-28 melanoma"}, "UACC-62 melanoma": {"test_system": "UACC-62 melanoma"}, "TK-10 renal": {"test_system": "TK-10 renal"}, "KM12 colon": {"test_system": "KM12 colon"}, "SF-539 CNS": {"test_system": "SF-539 CNS"}, "SR leukemia": {"test_system": "SR leukemia"}, "OVCAR-4 ovarian": {"test_system": "OVCAR-4 ovarian"}, "RPMI-8226 leukemia": {"test_system": "RPMI-8226 leukemia"}, "SK-MEL-5 melanoma": {"test_system": "SK-MEL-5 melanoma"}, "SNB-75 CNS": {"test_system": "SNB-75 CNS"}}, "note": "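Grown in 96-well plates, cells were treated for 48 hours with each compound at five concentrations. Insufficient inhibition: endpoint recorded as highest concentration tested. The concentration for full growth arrest is given as TGI.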"}
{"smiles": "C[C@]12CC[C@H](O)CC1=CC[C@@H]1C2CC[C@]2(C)C(=O)NC(=O)CC12", "note": "(stereo partly specified)", "values": [{"measurement": "TGI", "setting": "786-0 renal", "value": "> 100", "unit": "µM"}, {"measurement": "TGI", "setting": "NCI-H226 lung", "value": "> 100", "unit": "µM"}, {"measurement": "TGI", "setting": "SK-OV-3 ovarian", "value": "> 100", "unit": "µM"}, {"measurement": "TGI", "setting": "HT29 colon", "value": "> 100", "unit": "µM"}, {"measurement": "TGI", "setting": "SW-620 colon", "value": "> 100", "unit": "µM"}, {"measurement": "TGI", "setting": "OVCAR-3 ovarian", "value": "> 100", "unit": "µM"}, {"measurement": "TGI", "setting": "EKVX NSCLC", "value": "> 100", "unit": "µM"}, {"measurement": "TGI", "setting": "U251 CNS", "value": "> 100", "unit": "µM"}, {"measurement": "TGI", "setting": "SK-MEL-28 melanoma", "value": "> 100", "unit": "µM"}, {"measurement": "TGI", "setting": "UACC-62 melanoma", "value": "> 100", "unit": "µM"}, {"measurement": "TGI", "setting": "TK-10 renal", "value": "> 100", "unit": "µM"}, {"measurement": "TGI", "setting": "KM12 colon", "value": "> 100", "unit": "µM"}, {"measurement": "TGI", "setting": "SF-539 CNS", "value": "> 100", "unit": "µM"}, {"measurement": "TGI", "setting": "SR leukemia", "value": "> 100", "unit": "µM"}, {"measurement": "TGI", "setting": "OVCAR-4 ovarian", "value": "> 100", "unit": "µM"}, {"measurement": "TGI", "setting": "RPMI-8226 leukemia", "value": 89.8, "unit": "µM"}, {"measurement": "TGI", "setting": "SK-MEL-5 melanoma", "value": "> 100", "unit": "µM"}, {"measurement": "TGI", "setting": "SNB-75 CNS", "value": "> 100", "unit": "µM"}]}
{"smiles": "Nc1nc(N)c2ncn(CCOC(c3ccccc3)P(=O)(O)O)c2n1", "note": "(stereo unspecified)", "values": [{"measurement": "TGI", "setting": "786-0 renal", "value": "> 100", "unit": "µM"}, {"measurement": "TGI", "setting": "NCI-H226 lung", "value": "> 100", "unit": "µM"}, {"measurement": "TGI", "setting": "SK-OV-3 ovarian", "value": "> 100", "unit": "µM"}, {"measurement": "TGI", "setting": "HT29 colon", "value": "> 100", "unit": "µM"}, {"measurement": "TGI", "setting": "SW-620 colon", "value": "> 100", "unit": "µM"}, {"measurement": "TGI", "setting": "OVCAR-3 ovarian", "value": "> 100", "unit": "µM"}, {"measurement": "TGI", "setting": "EKVX NSCLC", "value": "> 100", "unit": "µM"}, {"measurement": "TGI", "setting": "U251 CNS", "value": "> 100", "unit": "µM"}, {"measurement": "TGI", "setting": "SK-MEL-28 melanoma", "value": "> 100", "unit": "µM"}, {"measurement": "TGI", "setting": "UACC-62 melanoma", "value": "> 100", "unit": "µM"}, {"measurement": "TGI", "setting": "TK-10 renal", "value": "> 100", "unit": "µM"}, {"measurement": "TGI", "setting": "KM12 colon", "value": "> 100", "unit": "µM"}, {"measurement": "TGI", "setting": "SF-539 CNS", "value": "> 100", "unit": "µM"}, {"measurement": "TGI", "setting": "SR leukemia", "value": "> 100", "unit": "µM"}, {"measurement": "TGI", "setting": "SK-MEL-5 melanoma", "value": "> 100", "unit": "µM"}, {"measurement": "TGI", "setting": "SNB-75 CNS", "value": "> 100", "unit": "µM"}]}
{"smiles": "CC(C)OC/N=C(/N)NC#N", "values": [{"measurement": "TGI", "setting": "786-0 renal", "value": "> 100", "unit": "µM"}, {"measurement": "TGI", "setting": "NCI-H226 lung", "value": "> 100", "unit": "µM"}, {"measurement": "TGI", "setting": "SK-OV-3 ovarian", "value": "> 100", "unit": "µM"}, {"measurement": "TGI", "setting": "HT29 colon", "value": "> 100", "unit": "µM"}, {"measurement": "TGI", "setting": "SW-620 colon", "value": 45.2, "unit": "µM"}, {"measurement": "TGI", "setting": "OVCAR-3 ovarian", "value": "> 100", "unit": "µM"}, {"measurement": "TGI", "setting": "EKVX NSCLC", "value": "> 100", "unit": "µM"}, {"measurement": "TGI", "setting": "U251 CNS", "value": "> 100", "unit": "µM"}, {"measurement": "TGI", "setting": "SK-MEL-28 melanoma", "value": "> 100", "unit": "µM"}, {"measurement": "TGI", "setting": "UACC-62 melanoma", "value": "> 100", "unit": "µM"}, {"measurement": "TGI", "setting": "TK-10 renal", "value": "> 100", "unit": "µM"}, {"measurement": "TGI", "setting": "KM12 colon", "value": "> 100", "unit": "µM"}, {"measurement": "TGI", "setting": "SF-539 CNS", "value": "> 100", "unit": "µM"}, {"measurement": "TGI", "setting": "SR leukemia", "value": 49.6, "unit": "µM"}, {"measurement": "TGI", "setting": "OVCAR-4 ovarian", "value": "> 100", "unit": "µM"}, {"measurement": "TGI", "setting": "RPMI-8226 leukemia", "value": 61.2, "unit": "µM"}, {"measurement": "TGI", "setting": "SK-MEL-5 melanoma", "value": "> 100", "unit": "µM"}, {"measurement": "TGI", "setting": "SNB-75 CNS", "value": "> 100", "unit": "µM"}]}
{"smiles": "COc1cc([C@@H]2c3cc4c(cc3[C@@H](OC(=O)c3cccc(N)c3)C3COC(=O)[C@@H]32)OCO4)cc(OC)c1O", "note": "(stereo partly specified)", "values": [{"measurement": "TGI", "setting": "786-0 renal", "value": 28.9, "unit": "µM"}, {"measurement": "TGI", "setting": "NCI-H226 lung", "value": 6.09, "unit": "µM"}, {"measurement": "TGI", "setting": "SK-OV-3 ovarian", "value": "> 75.2", "unit": "µM"}, {"measurement": "TGI", "setting": "HT29 colon", "value": 24.5, "unit": "µM"}, {"measurement": "TGI", "setting": "SW-620 colon", "value": "> 100", "unit": "µM"}, {"measurement": "TGI", "setting": "OVCAR-3 ovarian", "value": "> 100", "unit": "µM"}, {"measurement": "TGI", "setting": "EKVX NSCLC", "value": "> 100", "unit": "µM"}, {"measurement": "TGI", "setting": "U251 CNS", "value": 22.9, "unit": "µM"}, {"measurement": "TGI", "setting": "SK-MEL-28 melanoma", "value": "> 100", "unit": "µM"}, {"measurement": "TGI", "setting": "UACC-62 melanoma", "value": 24.1, "unit": "µM"}, {"measurement": "TGI", "setting": "TK-10 renal", "value": "> 100", "unit": "µM"}, {"measurement": "TGI", "setting": "KM12 colon", "value": "> 73.5", "unit": "µM"}, {"measurement": "TGI", "setting": "SF-539 CNS", "value": 13.8, "unit": "µM"}, {"measurement": "TGI", "setting": "SR leukemia", "value": 17.9, "unit": "µM"}, {"measurement": "TGI", "setting": "OVCAR-4 ovarian", "value": "> 100", "unit": "µM"}, {"measurement": "TGI", "setting": "RPMI-8226 leukemia", "value": 43.9, "unit": "µM"}, {"measurement": "TGI", "setting": "SK-MEL-5 melanoma", "value": 14, "unit": "µM"}, {"measurement": "TGI", "setting": "SNB-75 CNS", "value": "> 100", "unit": "µM"}]}
{"smiles": "Cc1ccc(N=C2N=C(N3CC(C)OC(C)C3)c3ccccc32)cc1", "note": "(stereo unspecified)", "values": [{"measurement": "TGI", "setting": "786-0 renal", "value": "> 100", "unit": "µM"}, {"measurement": "TGI", "setting": "NCI-H226 lung", "value": "> 100", "unit": "µM"}, {"measurement": "TGI", "setting": "HT29 colon", "value": 65, "unit": "µM"}, {"measurement": "TGI", "setting": "SW-620 colon", "value": "> 100", "unit": "µM"}, {"measurement": "TGI", "setting": "OVCAR-3 ovarian", "value": 73.4, "unit": "µM"}, {"measurement": "TGI", "setting": "EKVX NSCLC", "value": "> 100", "unit": "µM"}, {"measurement": "TGI", "setting": "U251 CNS", "value": "> 100", "unit": "µM"}, {"measurement": "TGI", "setting": "SK-MEL-28 melanoma", "value": 87.2, "unit": "µM"}, {"measurement": "TGI", "setting": "UACC-62 melanoma", "value": "> 100", "unit": "µM"}, {"measurement": "TGI", "setting": "TK-10 renal", "value": "> 100", "unit": "µM"}, {"measurement": "TGI", "setting": "KM12 colon", "value": 62.5, "unit": "µM"}, {"measurement": "TGI", "setting": "SF-539 CNS", "value": 38.1, "unit": "µM"}, {"measurement": "TGI", "setting": "OVCAR-4 ovarian", "value": 52.1, "unit": "µM"}, {"measurement": "TGI", "setting": "RPMI-8226 leukemia", "value": 87.1, "unit": "µM"}, {"measurement": "TGI", "setting": "SK-MEL-5 melanoma", "value": 48.5, "unit": "µM"}, {"measurement": "TGI", "setting": "SNB-75 CNS", "value": 88.5, "unit": "µM"}]}
{"smiles": "CSc1ccc(NC(=O)C2c3[nH]c4ccccc4c3C3CCC(C(C)(C)C)CC3C2C(=O)O)cc1", "note": "(stereo unspecified)", "values": [{"measurement": "TGI", "setting": "786-0 renal", "value": 32.2, "unit": "µM"}, {"measurement": "TGI", "setting": "NCI-H226 lung", "value": 33.1, "unit": "µM"}, {"measurement": "TGI", "setting": "SK-OV-3 ovarian", "value": 37.3, "unit": "µM"}, {"measurement": "TGI", "setting": "HT29 colon", "value": 39.1, "unit": "µM"}, {"measurement": "TGI", "setting": "SW-620 colon", "value": 32.1, "unit": "µM"}, {"measurement": "TGI", "setting": "EKVX NSCLC", "value": 85.3, "unit": "µM"}, {"measurement": "TGI", "setting": "U251 CNS", "value": 31.8, "unit": "µM"}, {"measurement": "TGI", "setting": "SK-MEL-28 melanoma", "value": 60.5, "unit": "µM"}, {"measurement": "TGI", "setting": "UACC-62 melanoma", "value": 67.1, "unit": "µM"}, {"measurement": "TGI", "setting": "SF-539 CNS", "value": 37.7, "unit": "µM"}, {"measurement": "TGI", "setting": "SR leukemia", "value": 25.5, "unit": "µM"}, {"measurement": "TGI", "setting": "OVCAR-4 ovarian", "value": 50.1, "unit": "µM"}, {"measurement": "TGI", "setting": "RPMI-8226 leukemia", "value": 58.6, "unit": "µM"}, {"measurement": "TGI", "setting": "SK-MEL-5 melanoma", "value": 66, "unit": "µM"}, {"measurement": "TGI", "setting": "SNB-75 CNS", "value": 37.9, "unit": "µM"}]}
